The text below walks through data of patent publication US20120245137A1 (Zalicus Pharmaceuticals Ltd., priority 2009, published 2012).

pIC50: −log10 of the molar value.

One may read the IC50 as the point on the concentration scale where inhibition reaches its midpoint. Usually pIC50 stands for the IC50 on a negative log10 scale, so that one unit is a factor of ten.

One experiment has as its system T-type calcium channel. The experiment can be described thus: T-type channel blocking activity as summarised in text (subunit not stated). The class given is cell-based, human. To be noted: Table 4. Here is the method:
T-type calcium channel blocking activity was assayed in human embryonic kidneycells, HEK 293 (Invitrogen), stably transfected with the T-type calcium channel subunits. Briefly, cells were cultured in Dulbecco's modified eagle medium (DMEM) supplemented with 10% fetal bovine serum, 200 U/ml penicillin, and 0.2 mg/mL streptomycin at 37° C. with 5% CO2. At 85% confluency, cells were split with 0.25% trypsin/1 mM EDTA and plated at 10% confluency on glass coverslips. At 12 hours, the medium was replaced, and the cells stably transfected using a standard calcium phosphate protocol and the appropriate calcium channel cDNA's. Fresh DMEM was supplied, and the cells transferred to 28° C./5% CO2. Cells were incubated for 1 to 2 days prior to whole cell recording.
Standard patch-clamp techniques were employed to identify blockers of T-type currents. Briefly, previously described HEK cell lines stably expressing human α1G, α1H, and α1I T-type channels were used for all the recordings (passage #: 4-20, 37° C., 5% CO2). Whole cell patch clamp experiments were performed using an Axopatch 200B amplifier (Axon Instruments, Burlingame, Calif.) linked to a personal computer equipped with pCLAMP software. Data were analyzed using Clampfit (Axon Instruments) and SigmaPlot 4.0 (Jandel Scientific). […]

For experiment [1], the target named is N-type calcium channel subunits (α1B, α2δ, and β3a) (Homo sapiens, UniProt Q00975). The experiment can be described thus: Block of Cav2.2 channel, whole cell voltage clamp, manual and PatchXpress. The class given is cell-based. The following applies: Table 5; table follows Assay Example 3 (whole cell voltage clamp / PatchXpress); assay not given. Put shortly:
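Percent block taken as current amplitude ratio with versus without compound, applied in rising doses; IC50 fitted where one cell received multiple doses. Protocol: 50 ms pulses to +20 mV at 0.067 Hz from […] or −90 mV holding; P/n leak subtraction, no junction-potential correction; manual and PatchXpress recordings.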

The target in experiment [2] is human α1H T-type channels (Homo sapiens, UniProt O95180). The experiment in a line: T-type calcium channel block, whole cell patch clamp, α1H. The class given is cell-based. The following applies: HEK cells stably expressing human α1H; mainly non-inactivated protocol; values above 10,000 nM represented as 10000. The gist of the method: (§1)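 Blockade of T-type current was measured in human α1G- or α1H-expressing HEK 293 cells using whole-cell recording with ~5 MΩ pipettes. Test compounds, dissolved in external solution containing 0.1-0.01% DMSO, were applied close to the cell, and block was examined under both non-inactivating and inactivating voltage protocols.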
In general terms: Patch clamp records ionic current or voltage across a cell membrane.

In experiment [3] the target is human α1G T-type channels (Homo sapiens, UniProt O43497). The experiment in a line: T-type calcium channel block, whole cell patch clamp, α1G. It counts as cell-based. To be noted: HEK cells stably expressing human α1G; mainly non-inactivated protocol; values above 10,000 nM represented as 10000. The gist of the method:
as §1

N-type calcium channel subunits (α1B, α2δ, and β3a), sequence (Q00975 whole entry): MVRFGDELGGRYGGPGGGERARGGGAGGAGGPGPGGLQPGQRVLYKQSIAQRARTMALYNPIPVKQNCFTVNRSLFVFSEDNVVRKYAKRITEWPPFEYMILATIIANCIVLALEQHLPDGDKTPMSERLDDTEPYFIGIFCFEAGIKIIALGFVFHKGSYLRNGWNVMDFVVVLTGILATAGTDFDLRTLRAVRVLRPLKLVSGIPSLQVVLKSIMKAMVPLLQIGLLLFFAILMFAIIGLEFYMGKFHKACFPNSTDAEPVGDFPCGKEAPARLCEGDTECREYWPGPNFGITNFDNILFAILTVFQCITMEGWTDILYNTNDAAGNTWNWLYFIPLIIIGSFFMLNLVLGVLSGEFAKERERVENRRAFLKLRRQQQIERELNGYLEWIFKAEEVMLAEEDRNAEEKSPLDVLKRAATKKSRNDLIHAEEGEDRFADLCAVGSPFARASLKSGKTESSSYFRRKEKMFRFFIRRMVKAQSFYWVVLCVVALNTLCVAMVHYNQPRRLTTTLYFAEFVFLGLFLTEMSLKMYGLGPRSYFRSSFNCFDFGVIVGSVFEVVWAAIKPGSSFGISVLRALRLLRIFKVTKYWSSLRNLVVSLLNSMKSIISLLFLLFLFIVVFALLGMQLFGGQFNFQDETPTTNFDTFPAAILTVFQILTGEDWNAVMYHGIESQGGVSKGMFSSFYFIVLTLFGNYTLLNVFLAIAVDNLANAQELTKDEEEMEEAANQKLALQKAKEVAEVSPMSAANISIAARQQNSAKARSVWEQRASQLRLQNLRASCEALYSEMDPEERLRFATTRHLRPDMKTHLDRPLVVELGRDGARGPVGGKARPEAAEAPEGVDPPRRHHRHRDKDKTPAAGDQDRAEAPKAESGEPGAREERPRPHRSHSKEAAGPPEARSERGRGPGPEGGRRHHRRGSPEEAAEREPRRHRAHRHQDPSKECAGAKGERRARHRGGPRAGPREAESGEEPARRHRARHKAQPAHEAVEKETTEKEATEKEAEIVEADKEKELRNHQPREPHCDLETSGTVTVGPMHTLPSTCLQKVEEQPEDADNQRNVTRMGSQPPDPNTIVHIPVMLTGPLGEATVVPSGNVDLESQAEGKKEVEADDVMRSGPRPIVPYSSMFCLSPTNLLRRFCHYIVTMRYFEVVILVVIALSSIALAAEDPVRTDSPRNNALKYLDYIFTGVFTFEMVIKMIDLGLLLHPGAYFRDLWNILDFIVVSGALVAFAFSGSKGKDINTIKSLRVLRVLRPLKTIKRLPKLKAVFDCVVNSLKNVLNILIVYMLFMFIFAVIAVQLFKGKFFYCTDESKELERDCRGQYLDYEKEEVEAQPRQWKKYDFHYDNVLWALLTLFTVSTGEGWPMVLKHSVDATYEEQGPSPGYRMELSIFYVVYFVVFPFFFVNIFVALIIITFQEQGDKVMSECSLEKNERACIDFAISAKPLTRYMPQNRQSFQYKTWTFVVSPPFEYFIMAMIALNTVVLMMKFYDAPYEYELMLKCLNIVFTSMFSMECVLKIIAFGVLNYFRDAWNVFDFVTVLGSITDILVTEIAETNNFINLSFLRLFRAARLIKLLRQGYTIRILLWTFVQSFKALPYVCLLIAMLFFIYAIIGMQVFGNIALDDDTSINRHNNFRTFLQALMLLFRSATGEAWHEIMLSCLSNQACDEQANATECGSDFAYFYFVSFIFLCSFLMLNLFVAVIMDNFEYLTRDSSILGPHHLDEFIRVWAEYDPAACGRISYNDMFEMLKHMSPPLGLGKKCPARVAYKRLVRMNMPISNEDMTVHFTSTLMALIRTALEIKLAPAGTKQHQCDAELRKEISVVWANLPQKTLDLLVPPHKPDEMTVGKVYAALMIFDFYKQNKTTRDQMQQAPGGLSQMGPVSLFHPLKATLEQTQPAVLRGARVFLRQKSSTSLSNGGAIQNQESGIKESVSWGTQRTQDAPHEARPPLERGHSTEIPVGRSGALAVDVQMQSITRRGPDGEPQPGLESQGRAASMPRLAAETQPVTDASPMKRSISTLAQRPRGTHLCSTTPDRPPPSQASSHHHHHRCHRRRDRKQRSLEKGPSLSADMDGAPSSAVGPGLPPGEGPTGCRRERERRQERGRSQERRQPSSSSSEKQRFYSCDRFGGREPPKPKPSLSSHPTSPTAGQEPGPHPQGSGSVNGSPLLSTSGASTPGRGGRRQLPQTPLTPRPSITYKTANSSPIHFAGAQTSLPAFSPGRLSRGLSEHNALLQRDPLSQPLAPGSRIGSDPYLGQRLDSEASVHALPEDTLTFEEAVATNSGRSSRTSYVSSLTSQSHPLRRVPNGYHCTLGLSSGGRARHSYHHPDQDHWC
N-type calcium channel subunits (α1B, α2δ, and β3a), sequence (P54289 25-1103 partner): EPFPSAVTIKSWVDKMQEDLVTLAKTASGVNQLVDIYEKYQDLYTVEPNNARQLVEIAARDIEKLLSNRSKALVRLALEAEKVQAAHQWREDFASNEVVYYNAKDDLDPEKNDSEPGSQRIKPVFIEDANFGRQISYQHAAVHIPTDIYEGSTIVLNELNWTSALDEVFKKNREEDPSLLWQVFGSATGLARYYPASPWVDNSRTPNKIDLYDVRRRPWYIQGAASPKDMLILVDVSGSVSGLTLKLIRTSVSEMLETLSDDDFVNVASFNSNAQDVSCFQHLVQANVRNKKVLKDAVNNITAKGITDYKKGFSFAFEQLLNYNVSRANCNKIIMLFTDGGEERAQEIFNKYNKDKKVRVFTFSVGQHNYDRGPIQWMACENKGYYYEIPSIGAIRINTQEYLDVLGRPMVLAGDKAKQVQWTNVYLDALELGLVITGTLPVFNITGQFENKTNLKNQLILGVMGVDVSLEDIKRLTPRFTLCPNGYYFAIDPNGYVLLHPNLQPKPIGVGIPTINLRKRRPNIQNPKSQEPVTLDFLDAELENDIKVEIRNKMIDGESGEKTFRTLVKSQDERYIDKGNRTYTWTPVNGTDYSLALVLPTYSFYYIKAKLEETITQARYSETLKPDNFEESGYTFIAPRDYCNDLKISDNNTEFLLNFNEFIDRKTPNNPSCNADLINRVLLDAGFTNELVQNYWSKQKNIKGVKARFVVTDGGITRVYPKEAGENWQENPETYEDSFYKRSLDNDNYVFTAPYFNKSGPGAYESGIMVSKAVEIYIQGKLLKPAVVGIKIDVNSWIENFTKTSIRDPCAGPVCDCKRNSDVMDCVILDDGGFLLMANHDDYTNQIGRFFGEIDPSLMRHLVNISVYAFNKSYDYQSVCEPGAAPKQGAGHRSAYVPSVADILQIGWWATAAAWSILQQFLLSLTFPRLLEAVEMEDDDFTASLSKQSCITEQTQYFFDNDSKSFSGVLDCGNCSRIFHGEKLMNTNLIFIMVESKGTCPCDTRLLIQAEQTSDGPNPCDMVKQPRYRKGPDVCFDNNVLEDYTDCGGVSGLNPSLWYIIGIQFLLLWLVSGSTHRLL
N-type calcium channel subunits (α1B, α2δ, and β3a), sequence (P54284 whole entry partner): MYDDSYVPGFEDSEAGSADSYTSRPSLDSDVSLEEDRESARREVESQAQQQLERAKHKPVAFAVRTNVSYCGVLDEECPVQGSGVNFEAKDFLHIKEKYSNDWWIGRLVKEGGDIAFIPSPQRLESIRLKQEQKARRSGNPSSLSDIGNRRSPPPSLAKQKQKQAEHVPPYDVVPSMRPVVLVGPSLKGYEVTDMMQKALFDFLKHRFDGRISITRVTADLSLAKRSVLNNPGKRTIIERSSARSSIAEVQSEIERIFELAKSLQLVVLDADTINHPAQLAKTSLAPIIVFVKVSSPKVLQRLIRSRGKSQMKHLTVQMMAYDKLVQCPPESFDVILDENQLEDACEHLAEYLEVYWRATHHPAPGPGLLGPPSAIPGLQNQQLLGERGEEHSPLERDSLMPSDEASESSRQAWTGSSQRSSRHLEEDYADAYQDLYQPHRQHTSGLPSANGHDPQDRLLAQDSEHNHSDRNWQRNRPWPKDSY

For the compound `COc1cc(F)cc(C(=O)N[C@H]2CC[C@H](S(=O)(=O)c3cccc(C(F)(F)F)c3)CC2)c1` [Compound 59, 3-fluoro-5-methoxy-N-((1R,4R)-4-(3-(trifluoromethyl)phenylsulfonyl)cyclohexyl)benzamide], the “activity (IC50), T-type channel block” value with T-type calcium channel was “lowest IC50”. In addition, the IC50 in experiment [1] was 440 nM. For the same compound, the pIC50 in experiment [2] is 5.09; in experiment [3], 5.04.
